{"source": "patent US20240197716A1", "about": "“TREATMENTS FOR CUSHING'S SYNDROME THAT DO NOT SIGNIFICANTLY AFFECT CARDIAC RHYTHMS” (Corcept Therapeutics Incorporated, priority 2022, published 2024)", "key": {"healthy volunteers": {"tested_on": "healthy volunteers", "experiment": "First-in-Human SAD/MAD study (NCT03508635), ECG / QTcF", "format": "in vivo", "conditions": "for placebo-corrected predicted change in QTc at Cmax: doses of 50, 150, 250 and 500 mg", "description": "A phase 1, 3-part, single-center, First-in-Human study (NCT03508635) included 103 healthy volunteers who received single or multiple ascending doses (SAD/MAD) of relacorilant (up to 500 mg QD) for up to 14 days; 24 received placebo.\n(§1) In all studies, ECG data were collected and the heart rate-corrected QT interval using Fridericia's formula (QTcF) was calculated. Participants with a family history of or risk factors for torsades de pointes or with a prolonged QT interval at screening were not eligible to participate. Exposure-response analysis of the effect of relacorilant on the heart-rate corrected QT interval (QTc) was conducted using a linear model with an intercept.\n(§2) In a 3-part, single-center, First-in-Human study (NCT03508635, “phase 1 study”), 103 healthy volunteers received single or multiple ascending doses of relacorilant (up to 500 mg QD) for up to 14 days; 24 received placebo. In a randomized, partial double-blind, crossover Thorough QT study (NCT04795479, “TQT study”), the effect of multiple therapeutic (400 mg QD, n=25) and supra-therapeutic (800 mg QD, n=28) doses of relacorilant on cardiac repolarization was studied in healthy volunteers. A single dose of moxifloxacin (400 mg, n=28) was used as a positive control; 29 participants received placebo. In a single-arm, open-label phase 2 study (NCT02804750, “CS study”), 17 patients with CS received low-dose relacorilant (100-200 mg QD) for 12 weeks and 18 patients received high-dose relacorilant (250-400 mg QD) for 16 weeks. In all studies, ECG data were collected, and the heart rate-corrected QT interval using Fridericia's formula (QTcF) was assessed.\nECG data were available from 42 and 12 participants randomized to relacorilant or placebo, respectively, during the single ascending dose (SAD) phase, and from 34 and 12 participants randomized to relacorilant or placebo, respectively, during the multiple ascending dose (MAD) phase. Baseline mean (SD) QTcF values were within expectations for a healthy population (range […] (11.7) msec to 403.5 (9.4) msec) and were similar in the respective relacorilant and placebo cohorts during the SAD and MAD study phases (see Table 1) (where the value in parentheses indicates standard deviation)."}, "patients with CS": {"tested_on": "patients with CS", "experiment": "Phase 2 CS study (NCT02804750), ECG / QTcF", "format": "in vivo, human", "description": "A single-arm, open-label phase 2 study (NCT02804750) in patients with CS. 17 patients received low-dose relacorilant (100-200 mg QD) for 12 weeks; 18 patients received high-dose relacorilant (250-400 mg QD) for 16 weeks.\nas §1, §2"}, "[1]": {"conditions": "MAD, concentration-QTc linear model, FIG. 2B"}, "[2]": {"conditions": "SAD, concentration-QTc linear model, FIG. 2A"}}}
{"smiles": "Cn1cc(S(=O)(=O)N2CCC3=Cc4c(cnn4-c4ccc(F)cc4)C[C@]3(C(=O)c3cc(C(F)(F)F)ccn3)C2)cn1", "note": "[relacorilant, ((R)-(1-(4-fluorophenyl)-6-((1-methyl-1H-pyrazol-4-yl)sulfonyl)-4,4a,5,6,7,8-hexahydro-1H-pyrazolo[3,4-g]isoquinolin-4a-yl)(4-(trifluoromethyl)pyridine-2-yl)methanone)]", "values": [{"measurement": "MAD equation ΔΔQTcF intercept", "setting": "healthy volunteers; [1]", "result": -1.804, "unit": "ms"}, {"measurement": "MAD equation ΔΔQTcF slope versus relacorilant concentration", "setting": "healthy volunteers; [1]", "result": -0.00234, "unit": "ms/ng/mL"}, {"measurement": "placebo-corrected predicted change in QTc at Cmax", "setting": "healthy volunteers; MAD, FIG. 2B", "result": "less than 10 ms"}, {"measurement": "mean ΔΔQTcF at any time point", "setting": "healthy volunteers; SAD and MAD study phases, all doses", "result": "≤ 5", "unit": "ms"}, {"measurement": "SAD equation ΔΔQTcF intercept", "setting": "healthy volunteers; [2]", "result": -0.005, "unit": "ms"}, {"measurement": "SAD equation ΔΔQTcF slope versus relacorilant concentration", "setting": "healthy volunteers; [2]", "result": -0.000588, "unit": "ms/ng/mL"}, {"measurement": "placebo-corrected predicted change in QTc at Cmax", "setting": "healthy volunteers; SAD, FIG. 2A", "result": "less than 5 ms"}, {"measurement": "Mean placebo-corrected ΔQTcF (ΔΔQTcF) at any time point", "setting": "healthy volunteers; any of the dosing groups", "result": "≤ 3", "unit": "ms"}, {"measurement": "prolonging effect on ΔΔQTcF exceeding the 10-msec threshold", "setting": "healthy volunteers; modeled SAD and MAD results, plasma concentrations up to approximately 4000 ng/ml", "result": "excluded"}, {"measurement": "instances of post-dose QTcF interval>450 ms or QTcF interval increase of >30 ms", "setting": "healthy volunteers; up to 500 mg QD", "result": "No instances"}, {"measurement": "effect on ECG parameters", "setting": "healthy volunteers; up to 500 mg daily", "result": "did not have a clinically relevant adverse effect on ECG parameters"}, {"measurement": "hypokalemia", "setting": "patients with CS; CS study", "result": "no instances"}, {"measurement": "abnormal sinus tachycardia, post-baseline ECG finding", "setting": "patients with CS; high-dose group", "result": 11.1, "unit": "%"}, {"measurement": "abnormal sinus tachycardia, post-baseline ECG finding", "setting": "patients with CS; high-dose group (18 patients)", "result": 2, "unit": "patients"}, {"measurement": "change in median QTcF", "setting": "patients with CS; high-dose group, 250 to 400 mg/day, FIG. 6B", "result": "No significant changes"}, {"measurement": "abnormal sinus tachycardia, post-baseline ECG finding", "setting": "patients with CS; low-dose group", "result": 17.6, "unit": "%"}, {"measurement": "abnormal sinus tachycardia, post-baseline ECG finding", "setting": "patients with CS; low-dose group (17 patients)", "result": 3, "unit": "patients"}, {"measurement": "change in median QTcF", "setting": "patients with CS; low-dose group, 100 to 200 mg/day, FIG. 6A", "result": "No significant changes"}]}
